From patent US6737383B1, “Herbicidal oxadiazolidines” (priority 1999, dated 2004)

Tests used:
[1] = system: wheat; test: Test B pre/postemergence wheat; assay type: in vivo, Triticum aestivum
Procedure, shortened: (§1)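 Herbicidal effect was estimated by eye on a ten-point control scale after plants spent twelve to sixteen days in a greenhouse following soil or foliar treatment. Foliar sprays targeted plants at one to four leaves; all doses were formulated in a non-phytotoxic solvent with surfactant.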

[2] = system: duck salad; test: Test B flood test duck salad; assay type: in vivo, Heteranthera limosa
Procedure, shortened: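 Read-out is a visual response score from 0 (no effect) to 10 (complete control), assigned by comparison with untreated controls. Treatment was applied at the 2-leaf stage, and plants stayed in the greenhouse for twelve to sixteen days before scoring.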

[3] = system: rape; test: Test B pre/postemergence rape; assay type: in vivo, Brassica napus
Procedure, shortened: as §1

[4] = system: morningglory; test: Test B pre/postemergence morningglory; assay type: in vivo, Ipomoea hederacea
Procedure, shortened: as §1

[5] = Postemergence, Rate 62 g/ha, scale 0 to 10, 0 is no effect, 10 is complete control
[6] = Postemergence, Rate 250 g/ha, scale 0 to 10, 0 no effect, 10 complete control
[7] = Preemergence, Rate 62 g/ha, scale 0 to 10, 0 is no effect, 10 is complete control
[8] = Preemergence, Rate 125 g/ha, scale 0 to 10 (0 no effect, 10 complete control)
[9] = Preemergence, Rate 250 g/ha, scale of 0 to 10 where 0 is no effect and 10 is complete control
[10] = Preemergence, Rate 500 g/ha, scale 0 (no effect) to 10 (complete control)
[11] = Rate 125 g/ha, Postemergence, scale 0 to 10, 0 no effect, 10 complete control
[12] = Rate 500 g/ha, Postemergence, scale 0 to 10, 0 no effect, 10 complete control
[13] = Rate 125 g/ha, Postemergence section (flood test species), scale 0 to 10, 0 no effect, 10 complete control
[14] = Rate 500 g/ha, listed under Postemergence (flood test species), scale 0 to 10, 0 no effect, 10 complete control
[15] = flood test, listed under Postemergence, Rate 250 g/ha, scale 0 to 10, 0 no effect, 10 complete control
[16] = Preemergence, Rate 62 g/ha, scale 0 to 10 (0 no effect, 10 complete control)
[17] = Postemergence, Rate 125 g/ha, scale of 0 to 10 where 0 is no effect and 10 is complete control

Cc1cccc(Cl)c1-n1c(=O)on(C(=O)N(c2ccc(F)cc2)C(C)C)c1=O [Compound 53]
5: Morningglory plant response rating [4, 6]
6: Morningglory plant response rating [4, 12]
1: Morningglory plant response rating [4, 5] | Morningglory plant response rating [4, 11]
3: Rape plant response rating [3, 12]
0: Wheat plant response rating [1, 5] | Wheat plant response rating [1, 6] | Plant response rating, Wheat [1, 7] | Plant response rating, Wheat [1, 8] | Plant response rating, Wheat [1, 9] | Wheat plant response rating [1, 10] | Wheat plant response rating [1, 11] | Wheat plant response rating [1, 12] | Ducksalad plant response rating [2, 5] | Ducksalad plant response rating [2, 13] | Ducksalad plant response rating [2, 14] | Ducksalad plant response rating [2, 15] | Rape plant response rating [3, 5] | Rape plant response rating [3, 6] | Plant response rating, Rape [3, 7] | Plant response rating, Rape [3, 8] | Plant response rating, Rape [3, 9] | Rape plant response rating [3, 10] | Rape plant response rating [3, 11] | Plant response rating, Morningglory [4, 7] | Plant response rating, Morningglory [4, 8] | Plant response rating, Morningglory [4, 9]

Cc1cccc(Cl)c1-n1c(=O)on(C(=O)N(c2ccc(Cl)cc2)C(C)C)c1=O [Compound 54]
0: Wheat plant response rating [1, 5] | Wheat plant response rating [1, 6] | Plant response rating, Wheat [1, 7] | Plant response rating, Wheat [1, 8] | Plant response rating, Wheat [1, 9] | Wheat plant response rating [1, 10] | Wheat plant response rating [1, 11] | Wheat plant response rating [1, 12] | Ducksalad plant response rating [2, 5] | Ducksalad plant response rating [2, 13] | Ducksalad plant response rating [2, 14] | Ducksalad plant response rating [2, 15] | Rape plant response rating [3, 5] | Rape plant response rating [3, 6] | Plant response rating, Rape [3, 7] | Plant response rating, Rape [3, 8] | Plant response rating, Rape [3, 9] | Rape plant response rating [3, 10] | Rape plant response rating [3, 11] | Rape plant response rating [3, 12] | Morningglory plant response rating [4, 5] | Plant response rating, Morningglory [4, 7] | Plant response rating, Morningglory [4, 8] | Plant response rating, Morningglory [4, 9] | Morningglory plant response rating [4, 11]
2: Morningglory plant response rating [4, 6] | Morningglory plant response rating [4, 12]

Cc1cc(C)c(-n2c(=O)on(C(=O)N(c3ccc(F)cc3)C(C)C)c2=O)c(C)c1 [Compound 60]
1: Morningglory plant response rating [4, 5]
2: Morningglory plant response rating [4, 6] | Morningglory plant response rating [4, 11] | Morningglory plant response rating [4, 12]
0: Wheat plant response rating [1, 5] | Wheat plant response rating [1, 6] | Wheat plant response rating [1, 16] | Plant response rating, Wheat [1, 8] | Plant response rating, Wheat [1, 9] | Wheat plant response rating [1, 10] | Wheat plant response rating [1, 11] | Wheat plant response rating [1, 12] | Ducksalad plant response rating [2, 5] | Ducksalad plant response rating [2, 13] | Ducksalad plant response rating [2, 14] | Ducksalad plant response rating [2, 15] | Rape plant response rating [3, 5] | Rape plant response rating [3, 6] | Rape plant response rating [3, 16] | Plant response rating, Rape [3, 8] | Plant response rating, Rape [3, 9] | Rape plant response rating [3, 10] | Rape plant response rating [3, 11] | Morningglory plant response rating [4, 16] | Plant response rating, Morningglory [4, 8] | Plant response rating, Morningglory [4, 9] | Morningglory plant response rating [4, 10]
4: Rape plant response rating [3, 12]

COc1cccc(C)c1-n1c(=O)on(C(=O)N(c2ccc(F)cc2F)C(C)C)c1=O [Compound 74]
3: Wheat plant response rating [1, 12] | Morningglory plant response rating [4, 6]
5: Rape plant response rating [3, 10]
4: Morningglory plant response rating [4, 12]
2: Rape plant response rating [3, 12] | Morningglory plant response rating [4, 5] | Morningglory plant response rating [4, 11]
0: Wheat plant response rating [1, 5] | Wheat plant response rating [1, 6] | Wheat plant response rating [1, 16] | Plant response rating, Wheat [1, 8] | Plant response rating, Wheat [1, 9] | Wheat plant response rating [1, 10] | Wheat plant response rating [1, 11] | Ducksalad plant response rating [2, 5] | Ducksalad plant response rating [2, 13] | Ducksalad plant response rating [2, 14] | Ducksalad plant response rating [2, 15] | Rape plant response rating [3, 5] | Rape plant response rating [3, 6] | Rape plant response rating [3, 16] | Plant response rating, Rape [3, 8] | Plant response rating, Rape [3, 9] | Rape plant response rating [3, 11] | Morningglory plant response rating [4, 16] | Plant response rating, Morningglory [4, 8] | Plant response rating, Morningglory [4, 9] | Morningglory plant response rating [4, 10]

CCN(CC)C(=O)n1oc(=O)n(Cc2cccs2)c1=O [Compound 77]
3: Rape plant response rating [3, 12]
0: Wheat plant response rating [1, 5] | Wheat plant response rating [1, 6] | Wheat plant response rating [1, 16] | Plant response rating, Wheat [1, 8] | Plant response rating, Wheat [1, 9] | Wheat plant response rating [1, 10] | Wheat plant response rating [1, 11] | Ducksalad plant response rating [2, 5] | Ducksalad plant response rating [2, 13] | Ducksalad plant response rating [2, 14] | Ducksalad plant response rating [2, 15] | Rape plant response rating [3, 5] | Rape plant response rating [3, 6] | Rape plant response rating [3, 16] | Plant response rating, Rape [3, 8] | Plant response rating, Rape [3, 9] | Rape plant response rating [3, 10] | Rape plant response rating [3, 11] | Morningglory plant response rating [4, 5] | Morningglory plant response rating [4, 6] | Morningglory plant response rating [4, 16] | Plant response rating, Morningglory [4, 8] | Plant response rating, Morningglory [4, 9] | Morningglory plant response rating [4, 10] | Morningglory plant response rating [4, 11] | Morningglory plant response rating [4, 12]
4: Wheat plant response rating [1, 12]

Cc1ccccc1Cn1c(=O)on(C(=O)N(c2ccc(F)cc2F)C(C)C)c1=O [Compound 87]
0: Wheat plant response rating [1, 5] | Wheat plant response rating [1, 6] | Wheat plant response rating [1, 16] | Plant response rating, Wheat [1, 8] | Plant response rating, Wheat [1, 9] | Wheat plant response rating [1, 10] | Wheat plant response rating [1, 11] | Ducksalad plant response rating [2, 5] | Ducksalad plant response rating ([2]; Rate 31 g/ha, Postemergence section (flood test species), scale 0 to 10) | Ducksalad plant response rating [2, 13] | Ducksalad plant response rating ([2]; Rate 250 g/ha, headed Pre-emergence (flood test species), scale 0 to 10 (0 no effect, 10 complete control)) | Plant response rating, Ducksalad ([2]; Rate 500 g/ha, headed Pre-emergence (flood test species), scale 0 to 10 (0 no effect, 10 complete control)) | Ducksalad plant response rating ([2]; Rate 1000 g/ha, Pre-emergence (as headed), scale 0 to 10) | Ducksalad plant response rating ([2]; Rate 2000 g/ha, Pre-emergence (as headed), scale 0 to 10) | Ducksalad plant response rating [2, 15] | Rape plant response rating [3, 5] | Rape plant response rating [3, 16] | Plant response rating, Rape [3, 8] | Plant response rating, Rape [3, 9] | Rape plant response rating [3, 11] | Morningglory plant response rating [4, 16] | Plant response rating, Morningglory [4, 8] | Plant response rating, Morningglory [4, 9] | Morningglory plant response rating [4, 10]
4: Morningglory plant response rating [4, 5]
7: Morningglory plant response rating [4, 6] | Morningglory plant response rating [4, 11]
3: Rape plant response rating [3, 12]
9: Morningglory plant response rating [4, 12]
5: Rape plant response rating [3, 10]
2: Wheat plant response rating [1, 12] | Rape plant response rating [3, 6]

Cc1nn(C)c(Cl)c1-n1c(=O)on(C(=O)N(c2ccc(F)cc2F)C(C)C)c1=O [Compound 96]
0: Wheat plant response rating [1, 5] | Wheat plant response rating [1, 17] | Wheat plant response rating [1, 16] | Wheat plant response rating (0 to 10 scale) ([1]; Preemergence, Rate 125 g/ha, 0 is no effect, 10 is complete control) | Plant response rating, Wheat [1, 9] | Wheat plant response rating [1, 10] | Plant response rating, Wheat ([1]; Rate 250 g/ha, Postemergence, scale 0 to 10, 0 is no effect, 10 is complete control) | Wheat plant response rating [1, 12] | Ducksalad plant response rating ([2]; Postemergence (flood test species), Rate 125 g/ha, scale of 0 to 10 where 0 is no effect and 10 is complete control) | Ducksalad plant response rating [2, 5] | Ducksalad plant response rating [2, 14] | Ducksalad plant response rating [2, 15] | Rape plant response rating [3, 5] | Rape plant response rating [3, 17] | Rape plant response rating [3, 6] | Rape plant response rating [3, 16] | Plant response rating, Rape [3, 8] | Plant response rating, Rape [3, 9] | Rape plant response rating [3, 12] | Morningglory plant response rating [4, 16] | Plant response rating, Morningglory [4, 8] | Plant response rating, Morningglory [4, 9] | Morningglory plant response rating [4, 10]
1: Morningglory plant response rating [4, 5] | Morningglory plant response rating [4, 17] | Morningglory plant response rating [4, 6]
2: Morningglory plant response rating [4, 12]
3: Rape plant response rating [3, 10]
